Reference: the supplement of paper PMC13380429

Assays:
Conditions in all cases: 72 h
HepG2 [1] = assay: drug sensitivity score (DSS) for viability; higher = more toxic; extreme values may be limits of the assay
Calu-3 [2] = assay: as above
Caco-2 [3] = assay: as above
U2OS [4] = assay: as above
Vero E6 [5] = assay: as above
HepG2 [6] = assay: cell viability relative to DMSO; higher = less toxic
Calu-3 [7] = assay: as above
Caco-2 [8] = assay: as above
U2OS [9] = assay: as above
Vero E6 [10] = assay: as above
HepG2 [11] = assay: relative viability EC50 (midpoint between 100% and the lowest measured viability); higher = less toxic
Calu-3 [12] = assay: as above
Caco-2 [13] = assay: as above
U2OS [14] = assay: as above
Vero E6 [15] = assay: as above

SMILES: CCCCCCCCCC(=O)OCCN1CCN(CCCN2c3ccccc3Sc3ccc(C(F)(F)F)cc32)CC1 [fluphenazine-decanoate]
- drug sensitivity score (HepG2 [1]): 0
- drug sensitivity score (Calu-3 [2]): 0
- drug sensitivity score (Caco-2 [3]): 0
- drug sensitivity score (U2OS [4]): 0
- drug sensitivity score (Vero E6 [5]): 0
- cell viability (HepG2 [6]; 1 nM): 95.5%
- cell viability (HepG2 [6]; 10 nM): 97.4%
- cell viability (HepG2 [6]; 100 nM): 96.9%
- cell viability (HepG2 [6]; 1000 nM): 93.7%
- cell viability (HepG2 [6]; 10000 nM): 108%
- cell viability (Calu-3 [7]; 1 nM): 101%
- cell viability (Calu-3 [7]; 10 nM): 95.8%
- cell viability (Calu-3 [7]; 100 nM): 98.5%
- cell viability (Calu-3 [7]; 1000 nM): 107%
- cell viability (Calu-3 [7]; 10000 nM): 91.6%
- cell viability (Caco-2 [8]; 1 nM): 111%
- cell viability (Caco-2 [8]; 10 nM): 84.8%
- cell viability (Caco-2 [8]; 100 nM): 96.3%
- cell viability (Caco-2 [8]; 1000 nM): 98%
- cell viability (Caco-2 [8]; 10000 nM): 92.1%
- cell viability (U2OS [9]; 1 nM): 97.2%
- cell viability (U2OS [9]; 10 nM): 100%
- cell viability (U2OS [9]; 100 nM): 99%
- cell viability (U2OS [9]; 1000 nM): 100%
- cell viability (U2OS [9]; 10000 nM): 96.9%
- cell viability (Vero E6 [10]; 1 nM): 104%
- cell viability (Vero E6 [10]; 10 nM): 105%
- cell viability (Vero E6 [10]; 100 nM): 96.3%
- cell viability (Vero E6 [10]; 1000 nM): 106%
- cell viability (Vero E6 [10]; 10000 nM): 105%
- relative viability EC50 (HepG2 [11]): > 10 µM
- relative viability EC50 (Calu-3 [12]): > 10 µM
- relative viability EC50 (Caco-2 [13]): > 10 µM
- relative viability EC50 (U2OS [14]): > 10 µM
- relative viability EC50 (Vero E6 [15]): > 10 µM

SMILES: O=C1NCN(c2ccccc2)C12CCN(CCCC(c1ccc(F)cc1)c1ccc(F)cc1)CC2 [fluspirilene]
- drug sensitivity score (HepG2 [1]): 1.1
- drug sensitivity score (Calu-3 [2]): 0
- drug sensitivity score (Caco-2 [3]): 0
- drug sensitivity score (U2OS [4]): 0
- drug sensitivity score (Vero E6 [5]): 0
- cell viability (HepG2 [6]; 1 nM): 112%
- cell viability (HepG2 [6]; 10 nM): 100%
- cell viability (HepG2 [6]; 100 nM): 101%
- cell viability (HepG2 [6]; 1000 nM): 88.5%
- cell viability (HepG2 [6]; 10000 nM): 84.8%
- cell viability (Calu-3 [7]; 1 nM): 101%
- cell viability (Calu-3 [7]; 10 nM): 104%
- cell viability (Calu-3 [7]; 100 nM): 99.4%
- cell viability (Calu-3 [7]; 1000 nM): 105%
- cell viability (Calu-3 [7]; 10000 nM): 105%
- cell viability (Caco-2 [8]; 1 nM): 88.3%
- cell viability (Caco-2 [8]; 10 nM): 106%
- cell viability (Caco-2 [8]; 100 nM): 80.5%
- cell viability (Caco-2 [8]; 1000 nM): 116%
- cell viability (Caco-2 [8]; 10000 nM): 99%
- cell viability (U2OS [9]; 1 nM): 98.4%
- cell viability (U2OS [9]; 10 nM): 103%
- cell viability (U2OS [9]; 100 nM): 98.1%
- cell viability (U2OS [9]; 1000 nM): 105%
- cell viability (U2OS [9]; 10000 nM): 90.5%
- cell viability (Vero E6 [10]; 1 nM): 115%
- cell viability (Vero E6 [10]; 10 nM): 98.1%
- cell viability (Vero E6 [10]; 100 nM): 103%
- cell viability (Vero E6 [10]; 1000 nM): 103%
- cell viability (Vero E6 [10]; 10000 nM): 93.7%
- relative viability EC50 (HepG2 [11]): > 10 µM
- relative viability EC50 (Calu-3 [12]): > 10 µM
- relative viability EC50 (Caco-2 [13]): > 10 µM
- relative viability EC50 (U2OS [14]): > 10 µM
- relative viability EC50 (Vero E6 [15]): > 10 µM

SMILES: CC(C)=CCC[C@]1(C)C=Cc2c(O)c3c(c(CC=C(C)C)c2O1)O[C@]12C(=C[C@@H]4C[C@H]1C(C)(C)O[C@@]2(C/C=C(/C)C(=O)O)C4=O)C3=O [gambogic-acid]
- drug sensitivity score (HepG2 [1]): 15.4
- drug sensitivity score (Calu-3 [2]): 16.6
- drug sensitivity score (Caco-2 [3]): 18.5
- drug sensitivity score (U2OS [4]): 18.8
- drug sensitivity score (Vero E6 [5]): 16.7
- cell viability (HepG2 [6]; 1 nM): 97.6%
- cell viability (HepG2 [6]; 10 nM): 93.6%
- cell viability (HepG2 [6]; 100 nM): 99.3%
- cell viability (HepG2 [6]; 1000 nM): 15.6%
- cell viability (HepG2 [6]; 10000 nM): -0.4%
- cell viability (Calu-3 [7]; 1 nM): 100%
- cell viability (Calu-3 [7]; 10 nM): 138%
- cell viability (Calu-3 [7]; 100 nM): 111%
- cell viability (Calu-3 [7]; 1000 nM): 4.7%
- cell viability (Calu-3 [7]; 10000 nM): -0.3%
- cell viability (Caco-2 [8]; 1 nM): 90.7%
- cell viability (Caco-2 [8]; 10 nM): 102%
- cell viability (Caco-2 [8]; 100 nM): 94.9%
- cell viability (Caco-2 [8]; 1000 nM): 1.9%
- cell viability (Caco-2 [8]; 10000 nM): -0.1%
- cell viability (U2OS [9]; 1 nM): 98.8%
- cell viability (U2OS [9]; 10 nM): 102%
- cell viability (U2OS [9]; 100 nM): 94%
- cell viability (U2OS [9]; 1000 nM): -0.1%
- cell viability (U2OS [9]; 10000 nM): -0.3%
- cell viability (Vero E6 [10]; 1 nM): 105%
- cell viability (Vero E6 [10]; 10 nM): 104%
- cell viability (Vero E6 [10]; 100 nM): 106%
- cell viability (Vero E6 [10]; 1000 nM): 6%
- cell viability (Vero E6 [10]; 10000 nM): -0.3%
- relative viability EC50 (HepG2 [11]): 0.51 µM
- relative viability EC50 (Calu-3 [12]): 0.404 µM
- relative viability EC50 (Caco-2 [13]): 0.288 µM
- relative viability EC50 (U2OS [14]): 0.269 µM
- relative viability EC50 (Vero E6 [15]): 0.4 µM

SMILES: CC1C(=O)OC2C(O)C34C5CC(C(C)(C)C)C36C(OC(=O)C6O)OC4(C(=O)O5)C12O (stereo not given) [ginkgolide-B]
- drug sensitivity score (HepG2 [1]): 0
- drug sensitivity score (Calu-3 [2]): 0
- drug sensitivity score (Caco-2 [3]): 0
- drug sensitivity score (U2OS [4]): 0
- drug sensitivity score (Vero E6 [5]): 0
- cell viability (HepG2 [6]; 1 nM): 110%
- cell viability (HepG2 [6]; 10 nM): 98.4%
- cell viability (HepG2 [6]; 100 nM): 99%
- cell viability (HepG2 [6]; 1000 nM): 97.3%
- cell viability (HepG2 [6]; 10000 nM): 97.5%
- cell viability (Calu-3 [7]; 1 nM): 106%
- cell viability (Calu-3 [7]; 10 nM): 90.8%
- cell viability (Calu-3 [7]; 100 nM): 103%
- cell viability (Calu-3 [7]; 1000 nM): 98.6%
- cell viability (Calu-3 [7]; 10000 nM): 106%
- cell viability (Caco-2 [8]; 1 nM): 98%
- cell viability (Caco-2 [8]; 10 nM): 93.4%
- cell viability (Caco-2 [8]; 100 nM): 102%
- cell viability (Caco-2 [8]; 1000 nM): 93.8%
- cell viability (Caco-2 [8]; 10000 nM): 92.8%
- cell viability (U2OS [9]; 1 nM): 106%
- cell viability (U2OS [9]; 10 nM): 102%
- cell viability (U2OS [9]; 100 nM): 106%
- cell viability (U2OS [9]; 1000 nM): 96.2%
- cell viability (U2OS [9]; 10000 nM): 104%
- cell viability (Vero E6 [10]; 1 nM): 100%
- cell viability (Vero E6 [10]; 10 nM): 101%
- cell viability (Vero E6 [10]; 100 nM): 97.1%
- cell viability (Vero E6 [10]; 1000 nM): 98.9%
- cell viability (Vero E6 [10]; 10000 nM): 100%
- relative viability EC50 (HepG2 [11]): > 10 µM
- relative viability EC50 (Calu-3 [12]): > 10 µM
- relative viability EC50 (Caco-2 [13]): > 10 µM
- relative viability EC50 (U2OS [14]): > 10 µM
- relative viability EC50 (Vero E6 [15]): > 10 µM
